Measured values taken from patent publication US8883698B2, “Compositions comprising a near terminal-branched compound and methods of making the same” (The Procter & Gamble Co, priority 2010, dated 2014).

Test: Dynamic Interfacial Tension analysis (Kruss DVT30 Drop Volume Tensiometer), ascending canola oil drop in aqueous surfactant phase
Format: physicochemical
Settings: 6 gpg water hardness; 15° C.
Method: The Dynamic Interfacial Tension analysis was performed on a Kruss® DVT30 Drop Volume Tensiometer. The instrument is configured to measure the interfacial tension of an ascending oil drop in aqueous detergent (surfactant) phase. The oil was canola oil. The aqueous detergent and oil phases are temperature controlled via a Polyscience® circulating water temperature controller attached to tensiometer. A dynamic interfacial tension curve is generated by dispensing the oil drops into the aqueous detergent phase from an ascending capillary with diameter of 0.2540 mm over a range of flow rates and measuring the interfacial tension at each flow rate. Data is generated at oil dispensing flow rates of 500 uL/min-1 uL/min with 2 flow rates per decade on a logarithmic scale (7 flow rates measured). Interfacial tension is measured on three oil drops per flow rate, then averaged. Interfacial tension is reported in units of mN/m. Surface age of the oil drops at each flow rate is also recorded and plots can be generated either of interfacial tension (y-axis) versus oil flow rate (x-axis) or interfacial tension (y-axis) versus oil drop surface age (x-axis).

precipitation observed during interfacial tension measurement: NM (precipitated)
Substance: 13-Methyltetradecylsulfate
